Legend:
[1] = Venous thrombosis: venous stasis under hypercoagulation (Wessler), thrombus removed and weighed; type: in vivo, male Wistar rats; conditions: Rattus norvegicus, po, suspension in PEG 400, thrombosis induced 4 hours after treatment; for inhibition in vivo at 12.5 mg/kg: 12.5 mg/kg administered orally; for inhibition in vivo at 3 mg/kg: 3 mg/kg administered orally
Protocol: A venous stasis under hypercoagulation is produced according to the technique described by WESSLER et al. (J. Applied Physiol. 1959, p. 943-946). As in the technique described by J. HAUPMAN et al. (Thrombosis and Haemostasis 43(2), 1980, p. 118), the hypercoagulant used is a solution of activated factor X (Xa) supplied by Flow Laboratories (71 Knat per 12.5 ml of physiological serum).
The study is performed on unfasted male Wistar rats weighing 250 to 280 g, divided into groups of 10 animals each. The products to be tested are administered orally as a suspension in PEG 400. A thrombosis is induced 4 hours after this treatment and the thrombus formed is removed and weighed.
The results obtained at doses of 3 mg/kg or 12.5 mg/kg, administered orally, have been collated in Table II. The results obtained with the known products of the above-mentioned prior art have also been collated in this Table.

[2] = as above; type: in vivo, male Wistar rats; conditions: 50 mg/kg administered orally

| SMILES | inhibition in vivo at 12.5 mg/kg [1] | inhibition in vivo at 3 mg/kg [1] | % inhibition at 50 mg/kg (footnote) [2] |
| --- | --- | --- | --- |
| O[C@@H]1[C@@H](O)[C@H](Sc2ccc(C(F)(F)F)cc2)SC[C@H]1O [Example 4, 4-trifluoromethylphenyl 1,5-dithio-β-D-xylopyranoside] | 66% | – | – |
| O=C(c1ccc(S[C@@H]2SC[C@@H](O)[C@H](O)[C@H]2O)cc1)C(F)(F)F [Example 20, 4-trifluoroacetylphenyl 1,5-dithio-β-D-xylopyranoside] | – | 49% | – |
| N#Cc1ccc(O[C@@H]2SC[C@@H](O)[C@H](O)[C@H]2O)cc1 [Example 22, 4-cyanophenyl 5-thio-β-D-xylopyranoside] | – | 57% | – |
| Nc1ccc(S[C@@H]2SC[C@@H](O)[C@H](O)[C@H]2O)cc1 [Example 18, 4-aminophenyl 1,5-dithio-β-D-xylopyranoside] | 93% | 30% | – |
| O=[N+]([O-])c1ccccc1O[C@@H]1SC[C@@H](O)[C@H](O)[C@H]1O [Example 28, 2-nitrophenyl 5-thio-β-D-xylopyranoside] | 94% | 51% | – |
| CC(=O)O[C@@H]1[C@@H](OC(C)=O)[C@H](OC(C)=O)CS[C@H]1Oc1cccc(C(C)=O)c1 [Example 25a, 3-acetylphenyl 2,3,4-tri-O-acetyl-5-thio-β-D-xylopyranoside] | – | 52% | – |
| CC(=O)c1ccc(S[C@@H]2SC[C@@H](O)[C@H](O)[C@H]2O)cc1 [Example 11, 4-acetylphenyl 1,5-dithio-β-D-xylopyranoside] | 98.3% | 47% | – |
| O=[N+]([O-])c1ccccc1S[C@@H]1SC[C@@H](O)[C@H](O)[C@H]1O [Example 7, 2-nitrophenyl 1,5-dithio-β-D-xylopyranoside] | 96.7% | 33% | – |
| COc1cc(S[C@@H]2SC[C@@H](O)[C@H](O)[C@H]2O)cc(OC)c1OC [Example 10, 3,4,5-trimethoxyphenyl 1,5-dithio-β-D-xylopyranoside] | 36.5% | – | – |
| CC(=O)O[C@@H]1[C@@H](OC(C)=O)[C@H](OC(C)=O)CS[C@H]1Oc1ccc([N+](=O)[O-])cc1 [Example 23a, 4-nitrophenyl 2,3,4-tri-O-acetyl-5-thio-β-D-xylopyranoside] | – | 44% | – |
| O=[N+]([O-])c1ccc(O[C@@H]2SC[C@@H](O)[C@H](O)[C@H]2O)cc1 [Example 23, 4-nitrophenyl 5-thio-β-D-xylopyranoside] | 94% | 37.5% | – |
| N#Cc1c(O[C@@H]2SC[C@@H](O)[C@H](O)[C@H]2O)ccc2ccccc12 [Example 31, 2-(1-cyanonaphthalenyl) 5-thio-β-D-xylopyranoside] | – | 28% | – |
| CC(=O)c1ccccc1O[C@@H]1SC[C@@H](O)[C@H](O)[C@H]1O [Example 29, 2-acetylphenyl 5-thio-β-D-xylopyranoside] | – | 26% | – |
| CC(=O)O[C@@H]1[C@@H](OC(C)=O)[C@H](Sc2ccc(C#N)cc2C#N)SC[C@H]1OC(C)=O [Example 16a, 2,4-dicyanophenyl 2,3,4-tri-O-acetyl-1,5-dithio-β-D-xylopyranoside] | 72.8% | – | – |
| CC(=O)Nc1ccc(S[C@@H]2SC[C@@H](OC(C)=O)[C@H](OC(C)=O)[C@H]2OC(C)=O)cc1 [Example 19a, 4-acetamidophenyl 2,3,4-tri-O-acetyl-1,5dithio-β-D-xylopyranoside] | – | 66% | – |
| N#Cc1cccc(S[C@@H]2SC[C@@H](O)[C@H](O)[C@H]2O)c1 [Example 5, 3-cyanophenyl 1,5-dithio-β-D-xylopyranoside] | 79.5% | 28% | – |
| CC(=O)c1ccc(O[C@@H]2SC[C@@H](O)[C@H](O)[C@H]2O)cc1 [Example 24, 4-acetylphenyl 5-thio-β-D-xylopyranoside] | 100% | 55% | – |
| O[C@@H]1[C@@H](O)[C@H](Sc2ccc3ccccc3c2)SC[C@H]1O [Example 3, 2-naphthalenyl 1,5-dithio-β-D-xylopyranoside] | 38% | – | – |
| N#Cc1ccc(-c2ccc(S[C@@H]3SC[C@@H](O)[C@H](O)[C@H]3O)cc2)cc1 [Example 14, 4-(4-cyanophenyl)phenyl 1,5-dithio-β-D-xylopyranoside] | 86% | 27% | – |
| O=[N+]([O-])c1cccc(S[C@@H]2SC[C@@H](O)[C@H](O)[C@H]2O)c1 [Example 12, 3-nitrophenyl 1,5-dithio-β-D-xylopyranoside] | 69% | – | – |

| SMILES | inhibition in vivo at 12.5 mg/kg [1] | inhibition in vivo at 3 mg/kg [1] | % inhibition at 50 mg/kg (footnote) [2] |
| --- | --- | --- | --- |
| N#Cc1ccccc1O[C@@H]1SC[C@@H](O)[C@H](O)[C@H]1O [Example 26, 2-cyanophenyl 5-thio-β-D-xylopyranoside] | 96% | 63.5% | – |
| N#Cc1cc(C#N)c(S[C@@H]2SC[C@@H](O)[C@H](O)[C@H]2O)c(C#N)c1 [Example 17, 2,4,6-tricyanophenyl 1,5-dithio-β-D-xylopyranoside] | 40% | 8% | – |
| N#Cc1cccc(O[C@@H]2SC[C@@H](O)[C@H](O)[C@H]2O)c1 [Example 27, 3-cyanophenyl 5-thio-β-D-xylopyranoside] | 98% | 66% | – |
| N#Cc1ccc2cc(O[C@@H]3SC[C@@H](O)[C@H](O)[C@H]3O)ccc2c1 [Example 30, 2-(6-cyanonaphthalenyl) 5-thio-β-D-xylopyranoside] | – | 51% | – |
| N#Cc1ccc(S[C@@H]2SC[C@@H](O)[C@H](O)[C@H]2O)cc1 [Example 1, 4-cyanophenyl 1,5-dithio-β-D-xylopyranoside] | 90% | 53% | – |
| O[C@@H]1[C@@H](O)[C@H](Sc2ccccc2C(F)(F)F)SC[C@H]1O [Example 13, 2-trifluoromethylphenyl 1,5-dithio-β-D-xylopyranoside] | 23% | – | – |
| N#Cc1ccc2cc(S[C@@H]3SC[C@@H](O)[C@H](O)[C@H]3O)ccc2c1 [Example 8, 2-(6-cyanonaphthalenyl) 1,5-dithio-β-D-xylopyranoside] | 94.7% | 31% | – |
| CC(=O)O[C@@H]1[C@@H](OC(C)=O)[C@H](OC(C)=O)CS[C@H]1Oc1ccc(C#N)cc1 [Example 22a, 4-cyanophenyl 2,3,4-tri-O-acetyl-5-thio-β-D-xylopyranoside] | – | 66% | – |
| COc1cc(S[C@@H]2SC[C@@H](OC(C)=O)[C@H](OC(C)=O)[C@H]2OC(C)=O)cc(OC)c1OC [Example 10a, 3,4,5-trimethoxyphenyl 2,3,4-tri-O-acetyl-1,5-dithio-β-D-xylopyranoside] | 62% | – | – |
| N#Cc1ccc(S[C@@H]2SC[C@@H](O)[C@H](O)[C@H]2O)c(C#N)c1 [Example 16, 2,4-dicyanophenyl 1,5-dithio-β-D-xylopyranoside] | 99.5% | 42.5% | – |
| O[C@@H]1[C@@H](O)[C@H](Sc2ccccc2)SC[C@H]1O [Example 9, phenyl 1,5-dithio-β-D-xylopyranoside] | 11% | – | 82% |
| O=[N+]([O-])c1ccc(S[C@@H]2SC[C@@H](O)[C@H](O)[C@H]2O)cc1 [Example 2, 4-nitrophenyl 1,5-dithio-β-D-xylopyranoside] | 78% | 35% | – |
| CC(=O)O[C@@H]1[C@@H](OC(C)=O)[C@H](OC(C)=O)CS[C@H]1Oc1ccc2ccccc2c1C#N [Example 31a, 2-(1-cyanonaphthalenyl) 2,3,4-tri-O-acetyl-5-thio-β-D-xylopyranoside] | – | 44.5% | – |
| CC(=O)c1cccc(O[C@@H]2SC[C@@H](O)[C@H](O)[C@H]2O)c1 [Example 25, 3-acetylphenyl 5-thio-β-D-xylopyranoside] | – | 44.5% | – |
| CC(=O)Nc1ccc(S[C@@H]2SC[C@@H](O)[C@H](O)[C@H]2O)cc1 [Example 19, 4-acetamidophenyl 1,5-dithio-β-D-xylopyranoside] | 93% | 61% | – |
| N#Cc1ccccc1S[C@@H]1SC[C@@H](O)[C@H](O)[C@H]1O [Example 6, 2-cyanophenyl 1,5-dithio-β-D-xylopyranoside] | 88.6% | 35% | – |
| Nc1cccc(S[C@@H]2SC[C@@H](O)[C@H](O)[C@H]2O)c1 [Example 21, 3-aminophenyl 1,5-dithio-β-D-xylopyranoside] | – | 31% | – |
| CC(=O)O[C@@H]1[C@@H](OC(C)=O)[C@H](OC(C)=O)CS[C@H]1Oc1cccc(C#N)c1 [Example 27a, 3-cyanophenyl 2,3,4-tri-O-acetyl-5-thio-β-D-xylopyranoside] | – | 57% | – |
| CC(=O)O[C@@H]1[C@@H](OC(C)=O)[C@H](Sc2ccc(C#N)cc2)SC[C@H]1OC(C)=O [Example 1a, 4-cyanophenyl 2,3,4-tri-O-acetyl-1,5-dithio-β-D-xylopyranoside] | 90% | 30% | – |
